The results in this text go back to patent US10780074B2, “Compounds and uses thereof” (Sunovion Pharmaceuticals Inc., priority 2017, dated 2020).

Where a name gives a salt, the structure may show the parent alone.

This experiment relates to behaviors of compound-treated mice. Briefly: Neuropharmacological Assay (SmartCube). As to conditions: for minimal effective dose: Mus musculus, ip, 0.25 h, dose having 50% or more total activity in SmartCube, i.p., read-out: MED (minimal effective dose); for AD: ADHD (probability that activity matches class) / AG: analgesic (probability that activity matches class) / AX: anxiolytic (probability that activity matches class) / CE: cognitive enhancer (probability that activity matches class) / DP: anti-depressant (probability that activity matches class) / MS: mood stabilizer (probability that activity matches class) / PS: anti-psychotic (probability that activity matches class) / SD: sedative hypnotic (probability that activity matches class) / UN: uncharacterized CNS activity (probability that activity matches class): i.p. 15 min before behavioral test, most efficacious dose(s) of 3 doses. Type of experiment: in vivo. From the text: Neuropharmacological Assay (SmartCube™)
Neurosci. 2011 Sep. 9; 5:103 (doi: 10.3389/fnins.2011.00103) (“Roberds”). As reported in Roberds, because psychiatric diseases generally result from disorders of cell-cell communication or circuitry, intact systems are useful in detecting improvement in disease-relevant endpoints. These endpoints are typically behavioral in nature, often requiring human observation and interpretation. To facilitate testing of multiple compounds for behavioral effects relevant to psychiatric disease, PsychoGenics, Inc. (Tarrytown, N.Y., “PGI”) developed SmartCube™, an automated system in which behaviors of compound-treated mice are captured by digital video and analyzed with computer algorithms. (D. Brunner et al., Drug Discov. Today 2002, 7:S107-S112). PGI Analytical Systems uses data from SmartCube™ to compare the behavioral signature of a test compound to a database of behavioral signatures obtained using a large set of diverse reference compounds. (The composition of the database as well as validation of the method is further described in Roberds). In this way, the neuropharmacological effects of a test compound can be predicted by similarity to major classes of compounds, such as antipsychotics, anxiolytics and antidepressants.
The SmartCube™ system produces an activity signature indicating the probability that the activity of the test compound at the administered dose matches a given class of neuropharmacological agents. (See, e.g., Roberds, FIGS. 2 and 3). The test compound is simultaneously compared against multiple classes of agents; thus, a separate probability is generated for each behavioral effect measured (e.g., anxiolytic activity, analgesic activity, etc.). In the table below, these probabilities are reported for each behavioral effect measured as follows:
Provided compounds were dissolved in a mixture of Pharmasolve™ (N-methyl-2-pyrrolidone), polyethylene glycol and propylene glycol, and were injected i.p. 15 min. before the behavioral test. For each compound, injections were administered at 3 different doses. For each behavioral effect measured, results for the most efficacious dose(s) are presented. In the table below, DP: anti-depressant; AX: anxiolytic; SD: sedative hypnotic; PS: anti-psychotic; MS: mood stabilizer; AD: ADHD; CE: cognitive enhancer; AG: analgesic; UN: uncharacterized CNS activity.
The potency of many of the compounds in the table was also determined in the SmartCube™ system. Test compounds were routinely examined at dose levels of 0.3, 1, 3 10 and 30 mg per kg (mpk), although the dose range was increased or decreased if necessary to obtain a full dose response curve. A compound's minimal effective dose (MED) is a measure of the compounds potency. The MED was defined as the dose (in mpk) having 50% or more total activity in SmartCube.

Regarding `CNC[C@H]1OCCc2ccc(-c3cncnc3)cc21` (single isomer, unassigned) [Compound 25, hydrochloride], the minimal effective dose (usually the smallest amount tested that counted as effective) lay in the range of 10 to 30 mg/kg, the “AD: ADHD (probability that activity matches class)” value (from here on “AD: ADHD”) is listed as “+ (LOQ ≤ + <5%)”, the “AG: analgesic (probability that activity matches class)” value (shortened to “AG: analgesic”) is “++ (5% ≤ ++ <25%)” and the “AX: anxiolytic (probability that activity matches class)” value (“AX: anxiolytic” for short) is “++ (5% ≤ ++ <25%)”. Moreover, the “CE: cognitive enhancer (probability that activity matches class)” value (“CE: cognitive enhancer” for short) is recorded as “+++ (25% ≤ +++ <50%)”, the “DP: anti-depressant (probability that activity matches class)” value (“DP: anti-depressant” for short) is recorded as “++ (5% ≤ ++ <25%)”, the “MS: mood stabilizer (probability that activity matches class)” value (from here on “MS: mood stabilizer”) was “++ (5% ≤ ++ <25%)” and the “PS: anti-psychotic (probability that activity matches class)” value (from here on “PS: anti-psychotic”) is “++ (5% ≤ ++ <25%)”. Moreover, the “SD: sedative hypnotic (probability that activity matches class)” value (“SD: sedative hypnotic” for short) is given as “++ (5% ≤ ++ <25%)” and the “UN: uncharacterized CNS activity (probability that activity matches class)” value (“UN: uncharacterized CNS activity” below) was “+ (LOQ ≤ + <5%)”.

Turning to `CNC[C@@H]1OCCc2ccc(-c3cncnc3)cc21` (single isomer, unassigned) [Compound 26, hydrochloride], the minimal effective dose is over 30 mg/kg, the “AD: ADHD” value is “+ (LOQ ≤ + <5%)”, the “AG: analgesic” value was “+ (LOQ ≤ + <5%)” and the “AX: anxiolytic” value was “+ (LOQ ≤ + <5%)”. For the same compound, the “CE: cognitive enhancer” value is recorded as “+ (LOQ ≤ + <5%)”, the “DP: anti-depressant” value is recorded as “+ (LOQ ≤ + <5%)”, the “MS: mood stabilizer” value is recorded as “+ (LOQ ≤ + <5%)” and the “PS: anti-psychotic” value was “+ (LOQ ≤ + <5%)”. Moreover, the “SD: sedative hypnotic” value is on record as “+ (LOQ ≤ + <5%)” and the “UN: uncharacterized CNS activity” value is reported as “+ (LOQ ≤ + <5%)”.

Consider `NC[C@@H]1OCCc2c(-c3cncnc3)cccc21` (single isomer, unassigned) [Compound 27, hydrochloride salt], for which the minimal effective dose is over 30 mg/kg, the “AD: ADHD” value is on record as “+ (LOQ ≤ + <5%)”, the “AG: analgesic” value is given as “+ (LOQ ≤ + <5%)” and the “AX: anxiolytic” value is on record as “++ (5% ≤ ++ <25%)”. The “CE: cognitive enhancer” value is “+ (LOQ ≤ + <5%)”, the “DP: anti-depressant” value is “++ (5% ≤ ++ <25%)”, the “MS: mood stabilizer” value was “+ (LOQ ≤ + <5%)” and the “PS: anti-psychotic” value is given as “++ (5% ≤ ++ <25%)”. The “SD: sedative hypnotic” value is “+ (LOQ ≤ + <5%)” and the “UN: uncharacterized CNS activity” value is “+ (LOQ ≤ + <5%)”.

On to `NC[C@H]1OCCc2c(-c3cncnc3)cccc21` (single isomer, unassigned) [Compound 28, hydrochloride salt], for which the minimal effective dose is 3 to 10 mg/kg, the “AD: ADHD” value was “++ (5% ≤ ++ <25%)”, the “AG: analgesic” value was “++ (5% ≤ ++ <25%)” and the “AX: anxiolytic” value was “++ (5% ≤ ++ <25%)”. Also, the “CE: cognitive enhancer” value was “++ (5% ≤ ++ <25%)”, the “DP: anti-depressant” value is given as “+++ (25% ≤ +++ <50%)”, the “MS: mood stabilizer” value is “+ (LOQ ≤ + <5%)” and the “PS: anti-psychotic” value is “++ (5% ≤ ++ <25%)”. The “SD: sedative hypnotic” value was “+ (LOQ ≤ + <5%)” and the “UN: uncharacterized CNS activity” value was “++ (5% ≤ ++ <25%)”.

`CNC[C@@H]1OCCc2c(-c3cncnc3)cccc21` (single isomer, unassigned) [Compound 29, hydrochloride salt]: the minimal effective dose was over 30 mg/kg, the “AD: ADHD” value is on record as “+ (LOQ ≤ + <5%)”, the “AG: analgesic” value is “+ (LOQ ≤ + <5%)” and the “AX: anxiolytic” value is listed as “+ (LOQ ≤ + <5%)”. For the same compound, the “CE: cognitive enhancer” value is reported as “+ (LOQ ≤ + <5%)”, the “DP: anti-depressant” value is reported as “+ (LOQ ≤ + <5%)”, the “MS: mood stabilizer” value is “+ (LOQ ≤ + <5%)” and the “PS: anti-psychotic” value was “+ (LOQ ≤ + <5%)”. Moreover, the “SD: sedative hypnotic” value is recorded as “+ (LOQ ≤ + <5%)” and the “UN: uncharacterized CNS activity” value is given as “+ (LOQ ≤ + <5%)”.

As to `CNC[C@H]1OCCc2c(-c3cncnc3)cccc21` (single isomer, unassigned) [Compound 30, hydrochloride salt], the minimal effective dose was 3 to 10 mg/kg, the “AD: ADHD” value was “++ (5% ≤ ++ <25%)”, the “AG: analgesic” value was “++ (5% ≤ ++ <25%)” and the “AX: anxiolytic” value is “++ (5% ≤ ++ <25%)”. Besides, the “CE: cognitive enhancer” value was “++ (5% ≤ ++ <25%)”, the “DP: anti-depressant” value is reported as “++++ (50% ≤ ++++)”, the “MS: mood stabilizer” value is listed as “+ (LOQ ≤ + <5%)” and the “PS: anti-psychotic” value is “+ (LOQ ≤ + <5%)”. In addition, the “SD: sedative hypnotic” value is reported as “+ (LOQ ≤ + <5%)” and the “UN: uncharacterized CNS activity” value is listed as “+ (LOQ ≤ + <5%)”.

In the case of `CNC[C@@H]1OCCc2cc(-c3cccnn3)ccc21` (single isomer, unassigned) [Compound 31, hydrochloride], the minimal effective dose is over 30 mg/kg, the “AD: ADHD” value is “+ (LOQ ≤ + <5%)”, the “AG: analgesic” value is “+ (LOQ ≤ + <5%)” and the “AX: anxiolytic” value was “++ (5% ≤ ++ <25%)”. Moreover, the “CE: cognitive enhancer” value is “+ (LOQ ≤ + <5%)”, the “DP: anti-depressant” value is listed as “++ (5% ≤ ++ <25%)”, the “MS: mood stabilizer” value is given as “+ (LOQ ≤ + <5%)” and the “PS: anti-psychotic” value is “+ (LOQ ≤ + <5%)”. Also, the “SD: sedative hypnotic” value was “+ (LOQ ≤ + <5%)” and the “UN: uncharacterized CNS activity” value was “+ (LOQ ≤ + <5%)”.

Take `CNC[C@H]1OCCc2cc(-c3cccnn3)ccc21` (single isomer, unassigned) [Compound 32, hydrochloride]: the minimal effective dose was over 30 mg/kg, the “AD: ADHD” value is “+ (LOQ ≤ + <5%)”, the “AG: analgesic” value is reported as “+ (LOQ ≤ + <5%)” and the “AX: anxiolytic” value was “+ (LOQ ≤ + <5%)”. The “CE: cognitive enhancer” value was “+ (LOQ ≤ + <5%)”, the “DP: anti-depressant” value is given as “+ (LOQ ≤ + <5%)”, the “MS: mood stabilizer” value is “+ (LOQ ≤ + <5%)” and the “PS: anti-psychotic” value was “+ (LOQ ≤ + <5%)”. The “SD: sedative hypnotic” value was “+ (LOQ ≤ + <5%)” and the “UN: uncharacterized CNS activity” value is “+ (LOQ ≤ + <5%)”.

As for `NC[C@@H]1OCc2c(-c3ccncc3)cccc21` (single isomer, unassigned) [Compound 37, hydrochloride salt], the minimal effective dose is 10 to 30 mg/kg, the “AD: ADHD” value was “++ (5% ≤ ++ <25%)”, the “AG: analgesic” value is recorded as “++ (5% ≤ ++ <25%)” and the “AX: anxiolytic” value is recorded as “++ (5% ≤ ++ <25%)”. Besides, the “CE: cognitive enhancer” value is given as “+ (LOQ ≤ + <5%)”, the “DP: anti-depressant” value is reported as “+++ (25% ≤ +++ <50%)”, the “MS: mood stabilizer” value was “+ (LOQ ≤ + <5%)” and the “PS: anti-psychotic” value is recorded as “+ (LOQ ≤ + <5%)”. Further, the “SD: sedative hypnotic” value was “+ (LOQ ≤ + <5%)” and the “UN: uncharacterized CNS activity” value is listed as “+ (LOQ ≤ + <5%)”.
